Patent publication US20010034330A1, “Innate immunity-stimulating compositions of CpG and saponin and methods thereof” (priority 1998, published 2001)

Assays:
[1] = test system: Listeria monocytogenes strain 10403s; test: Listeria monocytogenes challenge model (spleen colony counts); type: in vivo, Balb/c mice; conditions: Example 5, FIG. 5; given day 0, i.p. challenge with 10^5 colonies day 3, spleens 96 hours after challenge; versus saline, p<0.05 for the two lowest groups
Experimental: Balb/mice (5 per group, female, 8-10 weeks of age) were administered the following formulations on day 0: Group 1: saline, subcutaneous route. Group 2: 10 ug QS-21 and 10 ug of CpG sequence 1826, subcutaneous route. Group 3: 10 ug QS-21, subcutaneous route. Group 4: 10 ug CpG sequence 1826, subcutaneous route. Group 5: 0.5 ug recombinant murine IL-12, intraperitoneal route. A total volume of 0.2 ml was administered. On day 3, mice were challenged by the intraperitoneal route with 10^5 colonies of Listeria monocytogenes strain 10403s. Spleens were removed at 96 hours after challenge, homogenized, and then cultured in serial 10-fold dilutions overnight on agar plates. Listeria monocytogenes colonies were counted, the number of organisms per spleen determined, and then the geometric mean and standard error were determined for each group. A two-tailed, paired student's t-test of the log10 colonies/spleen was used to show statistical significance.

[2] = test system: YAC-1 cells; test: Natural killer cell activity: 51Cr release lysis of YAC-1 target cells by splenocytes of treated mice; type: in vivo, Balb/c mice; conditions: for NK cell response (lysis of YAC-1 cells): Example 1, FIG. 1, 10 ug each, subcutaneous, days 1 and 2; for NK cell response (lysis of YAC-1 cells) / NK activity, dose response: splenocytes day 3; for NK cell activity compared with QS-7 at an equivalent dose / NK activity, dose response: Example 3, FIG. 3, 3, 10, 30 ug s.c. day 1 and day 2
Experimental: Assessment of natural killer cell activity was carried out by an adaptation of a published method (Hashimoto et al., J. Immunol. 163: 583 (1999)). Balb/c mice (4 per group, female, 8-10 weeks of age) were administered one of five different candidate compositions at days 1 and 2. The compositions evaluated were (1) saline (negative control), (2) 10 ug QS-21, (3) 10 ug CpG (sequence 1826), (4) 0.5 ug murine IL-12 (positive control for NK cell activation), and (5) a combination of 10 ug QS-21 and 10 ug CpG in 0.2 ml saline. All test compositions were administered subcutaneously except for murine IL-12, which was administered intraperitoneally. Splenocytes were removed from the mice at day 3 for use as effector cells in the natural killer cell assay. Such cells were immediately used in a standard ^51Cr release lysis assay. YAC-1 cells (loaded with ^51Cr) were used as target cells. The lysis of this NK cell-sensitive line is indicative of NK cell activation in the splenocyte population.
The time dependence of the administration of CpG/QS-21 on natural killer cell activation was investigated. Balb/c mice (5 per group, female, 8-10 weeks of age) were administered a mixture of 10 ug QS-21 and 10 ug CpG sequence 1826 in a total volume of 0.2 ml by subcutaneous route seven days before (−7d), three days before (−3d), two days before (−2d), and one day before (−1d) assay of natural killer cell activity. Splenocytes were removed from the mice at day 0 for use as effector cells in the natural killer cell assay. YAC-1 cells (loaded with ^51Cr) were used as target cells. Natural killer cell lysis was apparent if the formulation of QS-21/CpG was administered one, two, or three days prior to the assay, but not if the formulation was administered seven days prior to the assay (FIG. 2). This confirms the transient nature of the natural killer cell activity.
Balb/c mice (5 per group, female, 8-10 weeks of age) were administered individually QS-7, QS-21, or CpG sequence 1826 at three different dose levels (3, 10, 30 ug) to determine a dose response curve for these individual compounds. The compositions evaluated were (1) saline (negative control), (2) 3 ug QS-21, (3) 10 ug QS-21, (4) 30 ug QS-21, (5) 3 ug QS-7(6) 10 ug QS-7, (7) 30 ug QS-7, (8) 3 ug sequence CpG 1826, (9) 10 ug CpG sequence 1826, and (10) 30 ug CpG sequence 1826. All test compositions were administered subcutaneously at day 1 and day 2. Splenocytes were removed from the mice at day 3 for use as effector cells in the natural killer cell assay. YAC-1 cells (loaded with ^51Cr) were used as target cells.
This experiment evaluated the natural killer cell stimulating activity induced by various formulations: (1) QS-21 (10 ug), (2) QS-7 (10 ug), (3) CpG sequence 1826 (10 ug), (4) CpG sequence 2006 (10 ug), (5) QS-21 (10 ug)+CpG sequence 1826 (10 ug), (6) QS-21 (10 ug)+CpG 2006 (10 ug), (7) QS-7 (10 ug)+CpG sequence 1826 ( […]), (8) QS-7 (10 ug) +CpG sequence 2006 (10 ug), (9) QS-7 (10 ug) and QS-21 (10 ug) and (10) saline. Balb/c mice (5 per group, female, 8-10 weeks of age) were administered the above formulations by subcutaneous route on day 1 and day 2. Splenocytes were removed from the mice at day 3 for use as effector cells in the natural killer cell assay. YAC-1 cells (loaded with ^51Cr) were used as target cells.

| Substance | Listeria monocytogenes colony count in spleen [1] | NK cell response (lysis of YAC-1 cells) [2] | NK cell activity compared with QS-7 at an equivalent dose [2] | NK activity, dose response [2] |
| --- | --- | --- | --- | --- |
| QS-21 | lowest colony counts | higher than CpG and that was nearly equivalent to the positive control, murine IL-12 | higher than that induced by QS-7 | enhance NK activity in a dose dependent fashion |
| TCCATGACGTTCCTGACGTT [CpG sequence 1826] | – | slightly enhanced the NK cell activity | higher than that induced by QS-7 | enhance NK activity in a dose dependent fashion |
